Here are results for three molecules from publication PMC7450057, “Enhancing intracellular accumulation and target engagement of PROTACs with reversible covalent chemistry” (Nature Communications, 2020).

One series deals with Rec-1. Briefly: IC50 in MCL cell lines (Supplementary Table 2), Rec-1. Particulars: for pIC50: Rec-1, triplicates; for Cell Viability (%): Rec-1 cells, replicate wells.
A further series addresses T1, C481S mutant BTK (Homo sapiens, UniProt Q06187, C481S).
T1 construct: expressed in transfected cells; host or cells: XLA cells (gift from Dr. Woyach)
Put plainly: BTK degradation in XLA cells overexpressing C481S mutant BTK (western blot). Particulars: 24 h. The class given is cell-based. The procedure:
XLA cells overexpressing wild-type BTK or mutant C481S BTK were plated at the same cell number and density as the above experiments and were treated with RC-1, IRC-1, or RNC-1 at the dose of 1.6, 8.0, 40, 200, and 1000 nM for 24 h. After completion of treatment, all the cells were collected and processed for western blot analysis.
The collected cells and spleen tissues were lysed in RIPA lysis buffer (50 mM Tris-HCl, pH 7.4, 150 mM NaCl, 1% NP-40, 0.5% sodium deoxycholate, 0.1% SDS) supplemented with Halt™ Protease and Phosphatase Inhibitor Cocktail (Thermo Fisher Scientific, Cat. No. PI78440) immediately before use. Lysates were centrifuged at 15,000 × g for 10 min at 4 °C and the supernatant was quantified for total protein concentration using the Pierce BCA Protein Assay (Thermo Fisher Scientific, Cat. No. 23225). Thirty micrograms of protein were loaded onto sodium dodecyl sulfate−polyacrylamide gel for electrophoresis (Bio-Rad) and transferred onto PVDF membranes (Millipore, Cat. No. IPVH00010). […] Imaging was performed using the ECL Prime chemiluminescent western blot detection reagents (GE Healthcare, Cat. No. RPN2232) by visualization of the blots to X-Ray film or with an Imager (Kindle Biosciences, Cat. No. D1001). All western blots were subsequently processed and quantified with Imager software. Protein level was normalized to β-actin or GAPDH loading controls.

A further series relates to MOLM-14 cells. Put plainly: Quantification of intracellular drug concentration by LC-MS. The format is in vitro ADME. Conditions: for Intracellular concentration: Concentration of compound, AVE / intracellular amount, AVE / intracellular amount / Intracellular concentration: Concentration of compound: 200 nM; for Intracellular concentration: Concentration of compound, AVE / intracellular amount, AVE: average of 3 replicates; for intracellular amount: initial amount 0.4000 nmol; for Intracellular concentration: Concentration of compound: sample volume 400 µL. The procedure:
MOLM-14 cells were seeded at a density of 0.5 × 10^6 per mL in 2 mL medium. […] The samples were immediately centrifuged at 12,000 × g for 15 min at 4 °C, then removing the supernatant. In all, 400 μL of NP-40 lysis buffer was added to the cell pellet and mixed thoroughly. The mixtures were rocked for 1 h at 4 °C and centrifuged at 12,000 × g for 15 min at 4 °C. Then the supernatant was transferred to new EP tubes. In total, 20 µL supernatant was extracted with 180 µL of acetonitrile (containing internal standard: 250 nM of RNC-Ctrl) and centrifuged at the same conditions described above. Take 75 μL of supernatant for liquid chromatography-mass spectrometry analysis.
The mass spectrometer was operated in positive SIM ion mode (fragmentor 120 V; cycle time 0.6 s/cycle; Agilent Technologies 6130 Quadrupole LC/MS).

SMILES strings stand for the structures. pIC50: −log10 of the molar value. “And” between values parts separate entries of the source, which are not always exact repeats. Equal values may be shown once.

T1 sequence (Q06187 whole entry C481S): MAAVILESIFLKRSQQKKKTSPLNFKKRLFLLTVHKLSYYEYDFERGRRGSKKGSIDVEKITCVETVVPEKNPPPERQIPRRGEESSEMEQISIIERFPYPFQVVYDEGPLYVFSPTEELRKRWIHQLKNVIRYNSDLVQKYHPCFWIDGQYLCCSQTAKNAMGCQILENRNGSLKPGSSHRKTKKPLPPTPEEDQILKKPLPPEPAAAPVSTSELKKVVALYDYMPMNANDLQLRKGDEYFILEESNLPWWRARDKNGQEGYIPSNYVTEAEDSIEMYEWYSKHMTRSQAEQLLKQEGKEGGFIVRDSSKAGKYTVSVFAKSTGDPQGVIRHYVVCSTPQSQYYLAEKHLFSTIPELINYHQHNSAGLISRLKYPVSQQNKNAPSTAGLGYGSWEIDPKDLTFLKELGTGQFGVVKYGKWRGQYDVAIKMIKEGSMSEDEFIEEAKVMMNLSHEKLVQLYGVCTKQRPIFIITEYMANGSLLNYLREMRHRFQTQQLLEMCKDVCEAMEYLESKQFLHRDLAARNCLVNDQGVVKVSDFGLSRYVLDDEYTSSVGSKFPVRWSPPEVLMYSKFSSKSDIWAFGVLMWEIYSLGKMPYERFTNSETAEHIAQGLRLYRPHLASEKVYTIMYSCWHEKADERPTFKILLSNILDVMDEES

One may read the pIC50 as the IC50 on a negative log10 scale, so that one unit is a factor of ten. Low values mean a high IC50, high ones a low IC50. Molecule `CC(C)(C)C=C(C#N)C(=O)N1CCCC(n2nc(-c3ccc(Oc4ccccc4)cc3)c3c(N)ncnc32)C1` (centres unmarked) [RC-Ctrl] gave a pIC50 with Rec-1 of less than 5.30. Besides, the “Cell Viability (%)” value in the series on Rec-1 (1.25E-06 M) is 84.1542% and 83.3085% and 82.8961%; in the series with Rec-1 (1.56E-07 M) it was 92.1928% and 91.3082% and 92.4737%; with Rec-1 (2.50E-06 M) it was 79.0591% and 78.7184% and 77.0987%; in the series on Rec-1 (3.13E-07 M), 90.2055% and 91.6728% and 91.1737%; in the series with Rec-1 (5.00E-06 M) it was 67.2403% and 66.8996% and 66.3946%; in the series on Rec-1 (6.25E-07 M), 86.0757% and 86.1055% and 87.7342%. Besides, the “Cell Viability (%)” value in the series with Rec-1 (7.81E-08 M) was 88.6576% and 86.9542% and 93.923%.

Molecule `CN1C(=O)CCC(N2C(=O)c3cccc(NCC(=O)NCCCN(C)C(C)(C)C=C(C#N)C(=O)N4CCCC(n5nc(-c6ccc(Oc7ccccc7)cc6)c6c(N)ncnc65)C4)c3C2=O)C1=O` (centres unmarked) [RC-1-Me] gave a pIC50 with Rec-1 of less than 5.30. For the same molecule, the “Cell Viability (%)” value is 88.9713% and 84.187% and 87.0708% in the series on Rec-1 (1.25E-06 M); 102.885% and 100.999% and 103.498% in the series on Rec-1 (1.56E-07 M); 85.2061% and 81.3451% and 80.2365% in the series with Rec-1 (2.50E-06 M); 100.04% and 97.7301% and 97.0129% in the series with Rec-1 (3.13E-07 M); 70.5812% and 67.1387% and 67.0221% in the series on Rec-1 (5.00E-06 M); 91.8342% and 92.6769% and 91.2574% with Rec-1 (6.25E-07 M). The “Cell Viability (%)” value in the series on Rec-1 (7.81E-08 M) was 100.946% and 100.662% and 102.733%.

`CN(CC=CC(=O)N1CCCC(n2nc(-c3ccc(Oc4ccccc4)cc3)c3c(N)ncnc32)C1)CCCNC(=O)CNc1cccc2c1C(=O)N(C1CCC(=O)NC1=O)C2=O` (centres unmarked) [IRC-1]: the “BTK degradation (in words)” value on C481S mutant BTK was “much more effective degradation of the BTK C481S mutant than its wild-type”. The “Intracellular concentration: Concentration of compound, AVE” value was 0.0785 µM with MOLM-14 cells (5 min); 0.0779 µM in the series with MOLM-14 cells (15 min); 0.0702 µM in the series with MOLM-14 cells (30 min); 0.0651 µM with MOLM-14 cells (60 min); 0.0717 µM in the series on MOLM-14 cells (90 min); 0.0652 µM with MOLM-14 cells (120 min). The “Intracellular concentration: Concentration of compound, AVE” value in the series with MOLM-14 cells (240 min) is recorded as 0.0595 µM. The “intracellular amount, AVE” value in the series on MOLM-14 cells (5 min) stood at 0.0314 nmol; with MOLM-14 cells (15 min), 0.0311 nmol; in the series with MOLM-14 cells (30 min) it was 0.0281 nmol; in the series with MOLM-14 cells (60 min), 0.0260 nmol; in the series with MOLM-14 cells (90 min), 0.0287 nmol; with MOLM-14 cells (120 min), 0.0261 nmol. Besides, the “intracellular amount, AVE” value with MOLM-14 cells (240 min) turned out to be 0.0238 nmol. The intracellular amount in the series with MOLM-14 cells (5 min, single replicates) is 0.0285 nmol and 0.0325 nmol and 0.0332 nmol; with MOLM-14 cells (15 min, single replicates), 0.0307 nmol and 0.0322 nmol and 0.0305 nmol; in the series with MOLM-14 cells (30 min, single replicates), 0.0259 nmol and 0.0296 nmol and 0.0288 nmol; with MOLM-14 cells (60 min, single replicates), 0.0274 nmol and 0.0266 nmol and 0.0240 nmol; in the series with MOLM-14 cells (90 min, single replicates), 0.0275 nmol and 0.0290 nmol and 0.0295 nmol; in the series with MOLM-14 cells (120 min, single replicates), 0.0239 nmol and 0.0281 nmol and 0.0261 nmol. Further, in the series on MOLM-14 cells (240 min, single replicates), the intracellular amount is 0.0228 nmol and 0.0239 nmol and 0.0246 nmol. The “Intracellular concentration: Concentration of compound” value in the series with MOLM-14 cells (5 min, single replicates) was 0.0713 µM and 0.0812 µM and 0.0831 µM; with MOLM-14 cells (15 min, single replicates), 0.0767 µM and 0.0806 µM and 0.0763 µM; in the series on MOLM-14 cells (30 min, single replicates), 0.0648 µM and 0.0740 µM and 0.0719 µM; in the series with MOLM-14 cells (60 min, single replicates), 0.0686 µM and 0.0666 µM and 0.0601 µM; in the series with MOLM-14 cells (90 min, single replicates), 0.0688 µM and 0.0725 µM and 0.0738 µM; in the series on MOLM-14 cells (120 min, single replicates), 0.0598 µM and 0.0703 µM and 0.0653 µM. Besides, the “Intracellular concentration: Concentration of compound” value with MOLM-14 cells (240 min, single replicates) was 0.0571 µM and 0.0598 µM and 0.0616 µM. Further, the Cellular concentration in the series with MOLM-14 cells (5 min, Mean) is 0.0314 nmol/million cells; in the series with MOLM-14 cells (5 min, single replicates, MOLM-14, 200 nM), 0.0285 nmol/million cells and 0.0325 nmol/million cells and 0.0332 nmol/million cells; in the series with MOLM-14 cells (15 min, Mean), 0.0311 nmol/million cells; in the series on MOLM-14 cells (15 min, single replicates, MOLM-14, 200 nM), 0.0307 nmol/million cells and 0.0322 nmol/million cells and 0.0305 nmol/million cells; in the series on MOLM-14 cells (30 min, Mean), 0.0281 nmol/million cells; in the series with MOLM-14 cells (30 min, single replicates, MOLM-14, 200 nM), 0.0259 nmol/million cells and 0.0296 nmol/million cells and 0.0288 nmol/million cells. Also, the Cellular concentration is 0.0260 nmol/million cells and 0.026 nmol/million cells in the series on MOLM-14 cells (60 min, Mean); 0.0240 nmol/million cells and 0.0274 nmol/million cells and 0.0266 nmol/million cells and 0.024 nmol/million cells in the series with MOLM-14 cells (60 min, single replicates, MOLM-14, 200 nM); 0.0287 nmol/million cells with MOLM-14 cells (90 min, Mean); 0.0290 nmol/million cells and 0.0275 nmol/million cells and 0.029 nmol/million cells and 0.0295 nmol/million cells with MOLM-14 cells (90 min, single replicates, MOLM-14, 200 nM); 0.0261 nmol/million cells in the series with MOLM-14 cells (120 min, Mean); 0.0239 nmol/million cells and 0.0281 nmol/million cells and 0.0261 nmol/million cells in the series with MOLM-14 cells (120 min, single replicates, MOLM-14, 200 nM). Moreover, the Cellular concentration with MOLM-14 cells (240 min, Mean) is 0.0238 nmol/million cells; with MOLM-14 cells (240 min, single replicates, MOLM-14, 200 nM), 0.0228 nmol/million cells and 0.0239 nmol/million cells and 0.0246 nmol/million cells.
